Converted amounts (≈) assume the structure as drawn.
Experiments:
[1] = target: interaction between GST-MAGEA11 MHD and FAM-PCF11_4 peptide (MAGE-A11:PCF11) (Homo sapiens (Human), UniProt P43364); test: TR-FRET dose response competition assay for disruption of MAGE-A11:PCF11 binding; settings: read-out: IC50 by TR-FRET for disrupting MAGE-A11:PCF11 interaction
Outline: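 Competition TR-FRET at room temperature in 50 mM Tris pH 7.5, 20 mM MgCl2, 0.1 mg/ml BSA, 1 mM DTT: final 5 nM GST-MAGEA11 MHD, 5 nM Tb-anti-GST, 200 nM FAM-PCF11_4, 90 min. Ratio 520/490 nm converted to % inhibition; IC50 from sigmoidal fit.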

[2] = Solubility assay (μSOL Evolution, UV); format: physicochemical; settings: 18 h at RT in buffer
Protocol: Solubility assays were carried out on a Biomek FX lab automation workstation (Beckman Coulter, Inc., Fullerton, CA) using SOL Evolution software (pION Inc., Woburn, MA). The detailed method is described as follows. 10 μl of 10 mM compound stock (in DMSO) was added to 190 μl 1-propanol to make a reference stock plate. 5 μl from this reference stock plate were mixed with 70 μl 1-propanol and 75 μl citrate phosphate-buffered saline (PBS; isotonic) to make the reference plate, and the UV spectrum (250-500 nm) of the reference plate was read. 6 μl of 10 mM test compound stock was added to 594 μl buffer in a 96-well storage plate and mixed. The storage plate was sealed and incubated at RT for 18 h. The suspension was then filtered through a 96-well filter plate (pION Inc., Woburn, MA). 75 μl of filtrate was mixed with 75 μl 1-propanol to make the sample plate, and the UV spectrum of the sample plate was read. Calculations were carried out with μSOL Evolution software based on the area under the curve (AUC) of the UV spectrum of the sample and reference plates. All compounds were tested in triplicate.

Sequence of interaction between GST-MAGEA11 MHD and FAM-PCF11_4 peptide (MAGE-A11:PCF11) (P43364 218-429): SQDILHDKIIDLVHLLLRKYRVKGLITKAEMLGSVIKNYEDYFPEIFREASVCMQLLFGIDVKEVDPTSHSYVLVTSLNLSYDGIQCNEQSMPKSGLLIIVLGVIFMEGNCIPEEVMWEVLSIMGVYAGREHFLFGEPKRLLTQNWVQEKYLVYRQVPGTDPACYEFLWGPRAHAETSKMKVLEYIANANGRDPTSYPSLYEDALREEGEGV

With `FC(F)(F)c1ccc2c(NCCCNCc3ccc4[nH]ccc4c3)ccnc2c1` [SJ000521054-02, N^1-((1H-Indol-5-yl)methyl)-N^3-(7-(trifluoromethyl)quinolin-4-yl)propane-1,3-diamine] the IC50 [1] was 400 nM and the “Solubility” value [2] was 26.48 µM (≈ 10.6 µg/mL).

From patent publication US20240246941A1, “SUBSTITUTED 4-(3-AMINOPROP-1-YL)AMINOQUINOLINE ANALOGS AS MODULATORS OF MELANOMA-ASSOCIATED ANTIGEN 11 UBIQUITIN LIGASE” (ST. JUDE CHILDREN'S RESEARCH HOSPITAL, INC., priority 2020, published 2024)
